Substitutions are numbered along the chain they refer to. Names may count otherwise.
Tests used:
[1] = biological target: T1, E. coli glucosamine synthase GlmS*54 (Escherichia coli, UniProt P17169, A39T/G472S/R250C); assay: Effects of phosphorylated sugars on glucosamine synthase; type: biochemical
T1 construct: made in house; host or cells: E. coli 7107-18 (printed '7017-18'; T7-glmS*54 integrated at galK) and strains derived from it; crude extract
Description: (§1) Glucosamine synthetase activity was examined in the presence of various phosphorylated sugars. Crude enzyme extracts was prepared from cells of 7017-18 grown in shake flasks for 24 hours with lactose induction.

[2] = biological target: E. coli glucosamine synthase GlmS*54, SEQ ID NO:6 (Ala39Thr, Arg250Cys, Gly472Ser) (Escherichia coli, UniProt P17169, A39T/G472S/R250C); assay: Effects of phosphorylated sugars on glucosamine synthase, crude extract of lactose-induced 7107-18 cells; type: biochemical; conditions: 10 mM or relatively high concentration
Sequence of E. coli glucosamine synthase GlmS*54, SEQ ID NO:6 (Ala39Thr, Arg250Cys, Gly472Ser) (P17169 whole entry A39T/R250C/G472S): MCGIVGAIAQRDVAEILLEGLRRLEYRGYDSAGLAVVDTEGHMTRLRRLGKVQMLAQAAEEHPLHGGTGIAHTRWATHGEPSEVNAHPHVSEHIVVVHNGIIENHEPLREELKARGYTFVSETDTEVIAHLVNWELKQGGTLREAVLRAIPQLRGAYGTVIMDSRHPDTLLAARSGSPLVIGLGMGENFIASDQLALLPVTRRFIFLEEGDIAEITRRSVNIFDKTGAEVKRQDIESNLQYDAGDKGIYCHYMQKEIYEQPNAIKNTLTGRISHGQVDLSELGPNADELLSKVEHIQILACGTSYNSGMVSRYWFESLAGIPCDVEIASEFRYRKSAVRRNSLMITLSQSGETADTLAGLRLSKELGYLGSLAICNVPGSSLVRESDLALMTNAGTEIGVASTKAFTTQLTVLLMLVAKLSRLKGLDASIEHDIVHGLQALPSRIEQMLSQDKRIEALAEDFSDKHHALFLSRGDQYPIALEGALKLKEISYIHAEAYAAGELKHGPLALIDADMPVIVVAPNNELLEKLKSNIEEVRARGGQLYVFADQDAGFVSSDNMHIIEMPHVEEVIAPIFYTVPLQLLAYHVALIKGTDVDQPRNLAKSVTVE
Description: as §1

[3] = tested on: E. coli 7107-18
Description: Batches of M9A medium with 40 g l^−1 glucose and 20 g 1-1 GlcN were adjusted to five different pHs. One set of flasks was immediately inoculated with 7107-18 cells. Replicate flasks of the same media were incubated without cells for 10 hours, before inoculation. Seven times over 48 hours, flasks were sampled to measure pH, OD600, and GlcN concentration. At each sample point, the pH of the culture was readjusted back to the initial settings.
Glucosamine is vital for E. coli growth since it is a precursor for the synthesis of important cell wall components. E. coli is also capable of using Glucosamine and N-acetylglucosamine as the sole carbon source. The catabolism of the amino sugars requires a functional glucosamine deaminase encoded by the nagB gene, which was deleted in strain 7107-18. […] Experiments were carried out to investigate if glucosamine affects E. coli 7107-18 cell growth and survival in medium containing 40 g l^−1 glucose.

[4] = Glucosamine stability in cell-free M9A medium; type: physicochemical; conditions: for loss of glucosamine: 60 g l-1, cell-free M9A-glucose, 30 C, 52 hours; for glucosamine degradation: cell-free M9A + 40 g l-1 glucose
Description: Glucosamine stability was tested in cell-free M9A medium (14 g l^−1 K2HPO4, 16 g l^−1 KH2PO4, 1 g l^−1 Na3citrate.2H2O, 5 g l^−1 (NH4)2SO4, 1 mM MgSO4, 1 mM CaCl2, pH 7.0) supplemented with 40 g l^−1 glucose. Glucosamine was prepared as a 30% glucosamine-HCl concentrated solution and was added to final concentrations of 0, 4, 13, 26 and 42 g l^−1 (50 ml total in 250-ml flask). The pH of the medium was adjusted to pH 6.9. Flasks were placed on a shaker and agitated at about 225 rpm. Glucosamine levels and pH were monitored at 30° C. for about 24 hours. […] The degradation was only about 25% when the starting glucosamine concentration was 4 g l^−1. Glucosamine degradation was accompanied by a decline of pH in the medium. In the 42 g l^−1 glucosamine sample the pH in the medium was lowered by 0.7 units (from 6.9 to 6.2) after a 24-hr period, as compared to a pH change of only about 0.15 units in medium without glucosamine.
The breakdown of glucosamine (60 g l^−1) at four starting pH levels was monitored at 30° C. in cell-free M9A-glucose (40 g l^−1) for 52 hours. At each sampling time, the solutions were readjusted to their original pH. Each condition was run in triplicate. […] The loss of glucosamine was 68% at pH 7.0 as compared to 18% at pH 5.5.
To test the involvement of the aldehyde group, degradation was monitored in M9A medium containing 30 g l^−1 glucosamine with and without 40 g l^−1 glucose. If the aldehyde group is involved, the presence of glucose would affect the rate of glucosamine degradation/polymerization.

[5] = tested on: E. coli strain 7107-18; assay: Effects of glucosamine and N-acetylglucosamine on growth and survival of E. coli 7107-18; type: cell-based, Escherichia coli
Description: As shown in Example 11, glucosamine is unstable at the regular pH range used for E. coli growth. […] The toxicity was attributed to at least partially to GlcN degradation products in media with a starting pH of 7.0. […] However, low pH levels are known to limit cell growth. Therefore, experiments were conducted in which 7107-18 was grown at pH 7.0, 6.0, 5.5, 5.0 and 4.7. The main objectives were to study cell growth at these lower pHs (with GlcN), and to see if the previously observed cell death caused by GlcN degradation could be reduced at lower pHs.
Cells were inoculated into M9A-glucose (40 g/L) containing 62 g/L N-acetyl glucosamine.

[6] = Glucosamine stability under acid/heat hydrolysis conditions; type: physicochemical; conditions: for glucosamine stability with heating: 10 g/l in M9A, 100 C
Description: In the first experiment N-acetylglucosamine (10 g/l in […] medium without glucose) was hydrolyzed at 100° C. with various levels of hydrochloric acid. In a parallel experiment, glucosamine was subjected to the same treatments to determine its stability under hydrolysis conditions. Conversion of N-acetylglucosamine to glucosamine was determined by monitoring the amount of glucosamine generated by the hydrolysis reaction. Glucosamine was determined by an HPLC method based on that described by Way et al. (Journal of Liquid Chromatography and Related Technologies, 23:2861, 2000). Some specific details of the HPLC method are given below: column: […] Both the amount of remaining N-acetylglucosamine and the amount of formed glucosamine were monitored. N-acetylglucosamine was measured by HPLC using a standard carbohydrate system. Some specific details are given below: column: […] Glucosamine was measured using the ion pair HPLC column as described above. […] At 100° C. conversion was complete by 2.5 hours. […] At lower temperatures, some hydrolysis was observed, but this was much slower. […] Acid hydrolysis of N-acetylglucosamine at 90° C. was performed. […] A series of 12-ml glass screw capped tubes with Teflon lined caps were employed. Each tube represented a separate time point (0, 15, 30, 45, 60, 90 minutes) and contained 2 ml of the N-acetylglucosamine/hydrochloric acid solution. Tubes were heated in a heating block equilibrated at 90° C. Tubes were removed at appropriate times and quick cooled in ice water. Appropriate dilutions were made in and samples analyzed by HPLC for glucosamine and N-acetylglucosamine. […] Kinetics of N-acetylglucosamine disappearance were essentially the same for all four solutions. Hydrolysis is very rapid at 90° C. […] No N-acetylglucosamine was detected at 60 or 90 minutes. After 1 hour at 90° C., N-acetylglucosamine was no longer detected even with 20% N-acetylglucosamine.

[7] = Stability of glucosamine in stored culture supernatant samples; type: physicochemical
Description: Shake flask culture samples were assayed by both the HPLC method and the colorimetric methods. The culture supernatants were obtained by centrifugation and filtration to remove particles, and stored at -20° C. until analysis. HPLC was calibrated using a single point 2500 ppm standard solution prepared in […] medium. After thawing, samples were immediately analyzed by HPLC. After remaining in the autosampler overnight, the samples were analyzed again. Agreement was very good between the two methods.

[8] = Degradation in hydrochloric acid at 90-100 C based on ammonia formation; type: physicochemical; conditions: 5% and 10% glucosamine hydrochloride, 12% and 20% hydrochloric acid, 90 C, 1-24 hours
Description: Glucosamine degradation was examined at 90° C. and 100° C. using 5% and 10% glucosamine hydrochloride (w/w) with 12% and 20% hydrochloric acid by weight. Samples were incubated from 1-24 hours and assayed enzymatically for ammonia using glutamate dehydrogenase. […] Glucosamine degradation is based on ammonia formation.
N-acetylglucosamine was hydrolyzed to glucosamine at 90° C. using the hybridization oven. The reaction was carried out inside a screw capped glass tube. The 30% hydrochloric acid (30 g) was preincubated at 90° C. for 1 hour. After this 10 g solid N-acetylglucosamine was added, quickly dissolved, and a To sample taken. Samples were taken at 30-minute intervals over the next three hours. […] Samples were analyzed for ammonia enzymatically.

[9] = biological target: E. coli GlmS mutant GlmS*69 (Escherichia coli, UniProt P17169); assay: GlmS inhibition and Michaelis-Menten kinetics; type: biochemical; conditions: read-out: Km (fructose-6-P)
Sequence of E. coli GlmS mutant GlmS*69 (P17169 whole entry, stated change not applied): as the sequence (P17169 whole entry A39T/R250C/G472S) above, with T39A, C250R, S472G counted along it
Description: (§2) Different glucosamine synthetase enzymes, including native B. subtillus GlmS, native E. coli GlmS and mutant E. coli GlmS, were studied in vitro. Cells of various E. coli strains were grown in the M9A medium, harvested, and frozen. Cells extracts were prepared and the glucosamine synthetases were characterized and compared.
(§3) Enzyme sensitivities to the reaction product glucosamine-6-P were examined. […] This figure highlights the dramatic difference between the wild type GlmS and these mutant GlmS strains.
(§4) The Mutants 2123-54 and the B. subtilis enzyme have higher Ki values (Table 6). Measured Ki constants for several of these mutants are 4 to 8 times the value for the native enzyme in strain 2123-12. From shake flask studies it is apparent that decreased sensitivity to glucosamine-6-P allows higher glucosamine levels to accumulate.
(§5) These values are slightly higher than those obtained with the native enzyme.

[10] = biological target: E. coli GlmS mutant GlmS*110 (Escherichia coli, UniProt P17169); assay: GlmS inhibition and Michaelis-Menten kinetics; type: biochemical; conditions: read-out: Km (fructose-6-P)
Sequence of E. coli GlmS mutant GlmS*110 (P17169 whole entry, change not shown): as the sequence (P17169 whole entry A39T/R250C/G472S) above, with T39A, C250R, S472G counted along it
Description: as §2, §3, §4, §5

[11] = substrate: O=P(O)(O)OC[C@H]1OC(O)(CO)[C@@H](O)[C@@H]1O; assay: GlmS inhibition and Michaelis-Menten kinetics; type: biochemical, Escherichia coli
Description: as §2, §3, §4, §5

T1 sequence (P17169 2-609 A39T/R250C/G472S): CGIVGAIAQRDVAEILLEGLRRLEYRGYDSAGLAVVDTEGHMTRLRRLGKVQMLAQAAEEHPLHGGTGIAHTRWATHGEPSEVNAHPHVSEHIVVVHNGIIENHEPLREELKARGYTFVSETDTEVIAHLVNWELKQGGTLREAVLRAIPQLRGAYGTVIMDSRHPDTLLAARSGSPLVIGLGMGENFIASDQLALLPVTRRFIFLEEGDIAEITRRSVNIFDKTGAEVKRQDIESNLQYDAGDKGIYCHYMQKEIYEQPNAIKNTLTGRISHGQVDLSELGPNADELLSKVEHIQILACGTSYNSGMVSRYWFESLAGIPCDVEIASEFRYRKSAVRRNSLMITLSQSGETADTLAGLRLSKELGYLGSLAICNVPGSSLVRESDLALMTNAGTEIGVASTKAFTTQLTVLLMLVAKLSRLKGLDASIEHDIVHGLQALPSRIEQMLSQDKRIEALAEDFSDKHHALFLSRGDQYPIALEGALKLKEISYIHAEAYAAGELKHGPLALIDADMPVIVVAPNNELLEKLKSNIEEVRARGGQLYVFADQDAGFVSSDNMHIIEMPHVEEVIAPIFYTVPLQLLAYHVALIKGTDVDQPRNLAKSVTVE

Molecule `CC(=O)N[C@H]1C(OP(=O)(O)O)O[C@H](CO)[C@@H](O)[C@@H]1O` (stereo partly shown) [N-acetylglucosamine-1-P, N-acetylglucosamine-1-phosphate] has an activity at 10000 µM [1] of 100%.

In the case of `N[C@H]1C(OP(=O)(O)O)O[C@H](CO)[C@@H](O)[C@@H]1O` (stereo partly shown) [glucosamine-1-P, glucosamine-1-phosphate], the activity at 10000 µM [1] is reported as 79% and the “inhibition of glucosamine synthetase (in words)” value [1] is reported as “inhibited”.

For `N[C@H]1[C@@H](OP(=O)(O)O)O[C@H](CO)[C@@H](O)[C@@H]1O` [glucosamine-1-P, glucosamine-1-phosphate], the “inhibition of glucosamine synthetase (in words)” value [2] was “inhibited the enzyme at 10 mM”.

For `N[C@H]1C(O)O[C@H](CO)[C@@H](O)[C@@H]1O` (stereo partly shown) [glucosamine], the “growth of freshly inoculated cultures” value ([3]; 10 and 20 g of glucosamine per liter, medium with 40 g l-1 glucose) was “slightly inhibited”, the “toxicity on strain 7107-18” value ([3]; 20 g l-1 glucosamine pre-incubated in the medium (pH 7.0) for 3.5 hrs prior to inoculation) was “Toxicity was observed” and the “cell growth after inoculation into pre-incubated medium” value ([3]; 20 g l-1 glucosamine, medium incubated 10 hours before inoculation, pH 7.0 to 4.7) was “very poor”. The “cell growth without glucosamine pre-incubation” value ([3]; 20 g l-1 glucosamine, pH 7.0) was “good growth”, the “viable counts relative to inoculation levels” value ([3]; 35 g l-1 glucosamine) was 10^5 fold less than inoculation levels and the “cell growth, inoculated immediately” value ([3]; 35 g l-1 glucosamine in M9A-glucose (40 g l-1)) was “grew reasonably well”. For the same molecule, the “cell survival in pre-incubated medium” value ([3]; 35 g l-1 glucosamine, medium pre-incubated as short as 3.5 hours) was “died rapidly”, the “viable count after 52 hrs” value ([3]; 40 g glucosamine per liter) was “about one-fifth the original number” and the “cell growth and survival” value ([3]; 40 g glucosamine per liter, killing after about 16 hours) was “prevented cell growth and began to kill the cells”. The “cell survival without medium pre-incubation” value ([3]; 50 g l-1 glucosamine) was “Cells died”, the “stability of glucosamine (in words)” value ([4]; 0-42 g l-1 in cell-free M9A-glucose, pH 6.9, 30 C) was “unstable” and the “glucosamine breakdown with versus without 40 g l-1 glucose” value ([4]; 30 g l-1 glucosamine in M9A medium) was “No significant difference”. The “decline of pH in the medium” value ([4]; 42 g l-1 glucosamine, 24-hr period (6.9 to 6.2)) was 0.7 units, the loss of glucosamine ([4]; pH 5.5) was 18% and the loss of glucosamine ([4]; pH 7.0) was 68%. For the same molecule, the glucosamine degradation ([4]; starting 4 g l-1, pH 6.9, 30 C, about 24 hours) was “about 25%”, the glucosamine degradation ([4]; starting 42 g l-1, pH 6.9, 30 C, less than a day) was “More than half” and the “viable count relative to original number” value ([5]; 40 g per liter, after 52 hrs) was “about one-fifth”. For the same molecule, the “concentration at which toxicity was observed” value ([5]; pre-incubated in medium (pH 7.0) for 3.5 hrs prior to inoculation) was 20000 µg/mL, the glucosamine degradation ([6]; 20 g/l, 1 N hydrochloric acid, 35, 60 or 100 C, 24 hours) was “No degradation was observed” and the loss of glucosamine ([6]; 90 C, 12% and 16% hydrochloric acid, 90 minutes) was “No large loss of glucosamine was observed”. The “glucosamine stability with heating” value ([6]; pH 1.0 or lower, hydrochloric acid) was “stable”, the “glucosamine stability with heating” value ([6]; pH higher than 1.0) was “a significant amount of glucosamine was lost” and the “glucosamine concentration after storage” value ([7]; filtered culture samples, -20 C, several weeks) was “no decrease in glucosamine concentration”. The “glucosamine concentration after storage” value ([7]; filtered samples, room temperature, overnight) was “did not result in any decrease in glucosamine concentration” and the “glucosamine degradation based on ammonia formation (in words)” value [8] was “significantly higher with higher acid concentration”.

In the case of `O=P(O)(O)OC[C@H]1OC(O)(CO)[C@@H](O)[C@@H]1O` (stereo partly shown) [fructose-6-P, fructose-6-phosphate], the Km [9] is reported as 350 µM and the Km [10] is reported as 410 µM.

B1: E. coli GlmS mutant GlmS*124, SEQ ID NO:8 (Leu469Pro) (strain 2123-124) (Escherichia coli K-12; L469P) (protein)
chain: CGIVGAIAQRDVAEILLEGLRRLEYRGYDSAGLAVVDAEGHMTRLRRLGKVQMLAQAAEEHPLHGGTGIAHTRWATHGEPSEVNAHPHVSEHIVVVHNGIIENHEPLREELKARGYTFVSETDTEVIAHLVNWELKQGGTLREAVLRAIPQLRGAYGTVIMDSRHPDTLLAARSGSPLVIGLGMGENFIASDQLALLPVTRRFIFLEEGDIAEITRRSVNIFDKTGAEVKRQDIESNLQYDAGDKGIYRHYMQKEIYEQPNAIKNTLTGRISHGQVDLSELGPNADELLSKVEHIQILACGTSYNSGMVSRYWFESLAGIPCDVEIASEFRYRKSAVRRNSLMITLSQSGETADTLAGLRLSKELGYLGSLAICNVPGSSLVRESDLALMTNAGTEIGVASTKAFTTQLTVLLMLVAKLSRLKGLDASIEHDIVHGLQALPSRIEQMLSQDKRIEALAEDFSDKHHAPFLGRGDQYPIALEGALKLKEISYIHAEAYAAGELKHGPLALIDADMPVIVVAPNNELLEKLKSNIEEVRARGGQLYVFADQDAGFVSSDNMHIIEMPHVEEVIAPIFYTVPLQLLAYHVALIKGTDVDQPRNLAKSVTVE
notes: made in house; host or cells: E. coli strain 2123-124, cell extract
Molecule B1 has a Km [11] of 1100 µM.

B2: E. coli GlmS mutant GlmS*72, SEQ ID NO:14 (Glu15Lys, Asp387Val, Ser450Pro, Glu525Gly) (strain 2123-72) (Escherichia coli K-12; D387V/E15K/E525G/S450P) (protein)
chain: B1 chain with E14K, D386V, S449P, P468L, E524G
notes: made in house; host or cells: E. coli strain 2123-72 (from 7101-17(DE3), plasmid with glmS*72 integrated), cell extract
In the case of B2, the Km [11] is reported as 950 µM.

Source: US8124381B2, “Process and materials for production of glucosamine and N-acetylglucosamine” (Arkion Life Sciences, priority 2002, dated 2012)
